Values of other authors in patent publication US12576027B2, “Diclofenac topical formulation with a high absorption rate” (IBSA INSTITUT BIOCHIMIQUE SA, priority 2021, dated 2026).

Conditions: orally administered

- absorption: almost complete
- time to high hematic peaks from administration: ≤ 2 h
SMILES: O=C(O)Cc1ccccc1Nc1c(Cl)cccc1Cl [diclofenac, 2-[(2,6-dichlorophenyl)-amino]benzeneacetic acid]
